Test results as given in US9598362B2, “Benzidine derivative, method for preparing same, and pharmaceutical composition containing benzidine derivative for treating liver disease caused by hepatitis C virus” (priority 2013, dated 2017).
pEC50: −log10 of the molar value. Read-outs that look alike come from different tables or passages of the source.

How the values were obtained:
[1] = test system: HCV replicon NK/R2AN; assay: Evaluation of anti-HCV activity 2: inhibition of HCV replication, huh7.5.1 cells with replicon NK/R2AN, renilla luciferase; format: cell-based; details: for pEC50: Hepatitis C virus; for EC50 (in words): duplicated HCV treated with compound
Protocol: To evaluate the anti-HCV activity, that is the activity to inhibit HCV replication, of the compound represented by formula 1 of the present invention, the following experiment was performed.
The hepatoma cell line huh7.5.1 having NK/R2AN, the replicon with which the replication and translation of HCV could be measured, was distributed in a 12-well cell culture plate at the density of 50,000 cells/well. The cells were cultured in DMEM (Dulbecco's Modified Eagle's Medium 12800-017, GIBCO Co.) supplemented with 10% (v/v) FBS (Fetal Bovine Serum SH30406.02, Hyclone Co.), 1% (v/v) antibiotics (penicillin/streptomycin solution SV30010, Hyclone Co.), and G418 (600 μg/mL, Calbiochem) in a 37° C. 6.0% CO2 incubator (CO2 Incubator 311, Forma Scientific Co, Lnc. USA) for 24 hours to lead cell attachment on the plate. Then, the cells were inoculated with HCV having renilla luciferase gene as a reporter for 3 hours. Upon completion of the virus inoculation, the cell culture medium was replaced with the medium containing the compounds prepared in Examples 1˜24 were added to the culture medium at the concentrations of 40 pM˜1 μM each. The cells were cultured in a 37° C. 6.0% CO2 incubator (CO2 Incubator 311, Forma Scientific Co, Lnc. USA) for 3 days. Three days after the infection, the cell culture medium was collected to measure the cytotoxicity in the following Experimental Example 3. The cells attached on the plate were washed with PBS (phosphate buffered saline) and then lysed by treating 100 μl of 1× passive lysis buffer (Promega, E1941). The cell lysate (10 μl) was added to renilla luciferase assay reagent (50 μl) in renilla luciferase assay system (Promega, E2820), followed by measurement of luminescence for 10 seconds using the luciferase measure program with Luminometer (GLOMAX 20/20 Luminometer, Promega). At this time, the measurement of luminescence was performed in triplicate with the groups treated with the compounds of Examples 1˜24 and the non-treated control group. The mean value was calculated and compared. The luminescence of each compound over the concentration was converted into EC50 (half maximal effective concentration) by using sigma plot program, and the results are shown in Table 3. At this time, when EC50 was under 100 pM, it was marked as A; when EC50 was in the range of 100 pM 1 nM, it was marked as B; when EC50 was in the range of 1 nM˜100 nM, it was marked as C; and when EC50 was over 100 nM, it was marked as D. The results are shown in Table 3.

[2] = test system: HCV (JFH-5aFlucm4); assay: Evaluation of anti-HCV activity 1: huh7.5.1 cells inoculated with HCV carrying renilla luciferase reporter; format: cell-based; details: Hepatitis C virus
Protocol: To evaluate the anti-HCV activity of the compound represented by formula 1 of the present invention, the following experiment was performed.
The hepatoma cell line huh7.5.1 was distributed in a 12-well cell culture plate at the density of 50,000 cells/well. The cells were cultured in DMEM (Dulbecco's Modified Eagle's Medium 12800-017, GIBCO Co.) supplemented with 10% (v/v) FBS (Fetal Bovine Serum SH30406.02, Hyclone Co.) and 1% (v/v) antibiotics (penicillin/streptomycin solution SV30010, Hyclone Co.) in a 37° C. 6.0% CO2 incubator (CO2 Incubator 311, Forma Scientific Co, Lnc. USA) for 24 hours to lead cell attachment on the plate. Then, the cells were inoculated with HCV (JFH-5aFlucm4, PLoS One. 2011; 6(8):e228808.) having renilla luciferase gene as a reporter for 3 hours. Upon completion of the virus inoculation, the cell culture medium was replaced with the medium containing the compounds prepared in Examples 1˜24 at the concentration of 1 μM each. The cells were cultured in a 37° C. 6.0% CO2 incubator (CO2 Incubator 311, Forma Scientific Co, Lnc. USA) for 3 days. Three days after the infection, the cell culture medium was collected to measure the cytotoxicity in the following Experimental Example 3. The cells attached on the plate were washed with PBS (phosphate buffered saline) and then lysed by treating 100 μl of 1× passive lysis buffer (Promega, E1941). The cell lysate (10 μl) was added to renilla luciferase assay reagent (50 μl) in renilla luciferase assay system (Promega, E2820), followed by measurement of luminescence for 10 seconds using the luciferase measure program with Luminometer (GLOMAX 20/20 Luminometer, Promega). At this time, the measurement of luminescence was performed in triplicate with the groups treated with the compounds of Examples 1˜24 and the non-treated control group. The mean value was calculated and compared. The luminescence of each compound over the concentration was converted into EC50 (half maximal effective concentration) by using sigma plot program, and the results are shown in Table 2.

[3] = Huh-7.5.1, 72 h, read-out: EC50 grade
[4] = Huh-7.5.1, replicon huh7.5.1 cells, Table 3, read-out: EC50

| SMILES | pEC50 [1, 3] | pEC50 [1, 4] | EC50 (in words) [1] | pEC50 ([2]; Huh-7.5.1) | pEC50 [2, 3] | pEC50 ([1]; Huh-7.5.1) |
| --- | --- | --- | --- | --- | --- | --- |
| COC(=O)N[C@@H](C(=O)N1CCC[C@H]1C(=O)Nc1ccc2c(c1)C(C)(C)c1cc(NC(=O)[C@@H]3CCCN3C(=O)[C@H](NC(=O)OC)c3ccccc3)ccc1-2)c1ccccc1 [Example 23, dimethyl((1R,1′R)-((2S,2′S)-2,2′-(((9,9-dimethyl-9H-fluorene-2,7-diyl)bis(azandiyl))bis(carbonyl))bis(pyrrolidine-2,1-diyl))bis(2-oxo-1-phenylethane-2,1-diyl))dicarbamate] | > 10.00 | > 10.00 | significantly low | > 9.00 | > 9.00 | – |
| COC(=O)N[C@@H](C(=O)N1CCC[C@H]1C(=O)Nc1ccc(-c2ccc(NC(=O)[C@@H]3CCCN3C(=O)[C@H](NC(=O)OC)c3ccccc3)cc2C(F)(F)F)c(C(F)(F)F)c1)c1ccccc1 [Example 2, dimethyl((1R,1′R)-((2S,2′S)-2,2′-(((2,2′-bis(trifluoromethyl)-[1,1′-biphenyl]-4,4′-diyl)bis(azandiyl))bis(carbonyl))bis(pyrrolidine-2,1-diyl))bis(2-oxo-1-phenylethane-2,1-diyl))dicarbamate] | > 10.00 | > 10.00 | significantly low | > 9.00 | > 9.00 | – |
| CCN(CC)[C@@H](C(=O)N1CCC[C@H]1C(=O)Nc1ccc(-c2ccc(NC(=O)[C@@H]3CCCN3C(=O)[C@@H](c3ccccc3)N(CC)CC)cc2)cc1)c1ccccc1 [Example 15, (S,2S,2′S)—N,N-(biphenyl-4,4′-diyl)bis(1-((S)-2-(diethylamino)-2-phenylacetyl)pyrrolidine-2-carboxamide)] | 9.00 to 10.00 | – | – | – | 7.00 to 9.00 | – |
| COC(=O)N[C@@H](C(=O)N1CCC[C@H]1C(=O)Nc1ccc(-c2ccc(NC(=O)[C@@H]3CCCN3C(=O)[C@H](NC(=O)OC)c3ccccc3)cc2C)c(C)c1)c1ccccc1 [Example 3, dimethyl((1R,1′R)-((2S,2′S)-2,2′-(((2,2′-dimethyl-[1,1′-biphenyl]-4,4′-diyl)bis(azandiyl))bis(carbonyl))bis(pyrrolidine-2,1-diyl))bis(2-oxo-1-phenylethane-2,1-diyl))dicarbamate] | > 10.00 | > 10.00 | significantly low | > 9.00 | > 9.00 | – |
| COC(=O)N[C@@H](C(=O)N1CSC[C@H]1C(=O)Nc1ccc(-c2ccc(NC(=O)[C@@H]3CSCN3C(=O)[C@H](NC(=O)OC)c3ccccc3)cc2)cc1)c1ccccc1 [Example 21, dimethyl(1S,1S′)-2,2′-((4R,4R)-4,4′-(biphenyl-4,4′-diylbis(azandiyl))bis(oxomethylene)bis(thiazolidine-4,3-diyl))bis(2-oxo-1-phenylethane-2,1-diyl)bicarbamate] | > 10.00 | – | significantly low | – | 7.00 to 9.00 | > 10.00 |
| COC(=O)N[C@@H](C(=O)N1CCC[C@H]1C(=O)Nc1ccc(-c2ccc(NC(=O)[C@@H]3CCCN3C(=O)[C@H](NC(=O)OC)c3ccccc3)cc2F)c(F)c1)c1ccccc1 [Example 5, dimethyl((1R,1′R)-((2S,2′S)-2,2′-(((2,2′-difluoro-[1,1′-biphenyl]-4,4′-diyl)bis(azandiyl))bis(carbonyl))bis(pyrrolidine-2,1-diyl))bis(2-oxo-1-phenylethane-2,1-diyl))dicarbamate] | > 10.00 | > 10.00 | significantly low | > 9.00 | > 9.00 | – |
| COC(=O)N[C@@H](C(=O)N1CCC[C@H]1C(=O)Nc1ccc(-c2ccc(NC(=O)[C@@H]3CCCN3C(=O)[C@H](NC(=O)OC)c3ccccc3)cc2Br)c(Br)c1)c1ccccc1 [Example 7, dimethyl((1R,1′R)-((2S,2′S)-2,2′-(((2,2′-dibromo-[1,1′-biphenyl]-4,4′-diyl)bis(azandiyl))bis(carbonyl))bis(pyrrolidine-2,1-diyl))bis(2-oxo-1-phenylethane-2,1-diyl))dicarbamate] | > 10.00 | > 10.00 | significantly low | > 9.00 | > 9.00 | – |
| COC(=O)N[C@@H](C(=O)N1CCC[C@H]1C(=O)Nc1ccc(-c2ccc(NC(=O)[C@@H]3CCCN3C(=O)[C@H](NC(=O)OC)c3ccccc3)c(C)c2)cc1C)c1ccccc1 [Example 1, dimethyl((1R,1′R)-((2S,2′S)-2,2′-(((3,3′-dimethyl-[1,1′-biphenyl]-4,4′-diyl)bis(azandiyl))bis(carbonyl))bis(pyrrolidine-2,1-diyl))bis(2-oxo-1-phenylethane-2,1-diyl))dicarbamate] | 7.00 to 9.00 | – | – | – | < 7.00 | – |
| COC(=O)N[C@@H](C(=O)N1CCC[C@H]1C(=O)Nc1ccc2c(c1)C(=O)c1cc(NC(=O)[C@@H]3CCCN3C(=O)[C@H](NC(=O)OC)c3ccccc3)ccc1-2)c1ccccc1 [Example 24, dimethyl((1R,1′R)-((2S,2′S)-2,2′-(((9-oxo-9H-fluorene-2,7-diyl)bis(azandiyl))bis(carbonyl))bis(pyrrolidine-2,1-diyl))bis(2-oxo-1-phenylethane-2,1-diyl))dicarbamate] | > 10.00 | > 10.00 | significantly low | – | 7.00 to 9.00 | – |
